Results from ChEMBL document CHEMBL2169755, “A Divergent SAR Study Allows Optimization of a Potent 5-HT2c Inhibitor to a Promising Antimalarial Scaffold” (ACS Med Chem Lett, 2012).
Converted amounts (≈) assume the structure as drawn. The source made the active and inactive calls. The calls are words filed in the database; no cut-off is given here.

Legend:
Plasmodium falciparum [1] = assay: microbe, parasite or virus in culture; settings: 3D7 A
Description: Antiplasmodial activity against Plasmodium falciparum 3D7A assessed as inhibition of [3H]hypoxanthine incorporation incubated for 24 hrs prior to [3H]hypoxanthine addition measured after 24 hrs by beta scintillation counting

Plasmodium falciparum [2] = assay: Antiplasmodial activity against Plasmodium falciparum assessed as pyknotic phenotype after 24 hrs by Giemsa-staining method; assay type: functional, organism-based
Plasmodium falciparum [3] = assay: Antiplasmodial activity against Plasmodium falciparum Dd2 assessed as inhibition of [3H]hypoxanthine incorporation incubated for 24 hrs prior to [3H]hypoxanthine addition measured after 24 hrs by beta scintillation counting; assay type: functional, organism-based
[4] = target: T1, 5-hydroxytryptamine receptor 2C (Homo sapiens, UniProt P28335); assay: Inhibition of human 5HT2c receptor expressed in CHO-K1 cells assessed as inhibition of 5HT-induced calcium influx measured up to 30 secs by aequorin luminescence assay; assay type: functional, cell-based
T1 sequence (P28335 whole entry): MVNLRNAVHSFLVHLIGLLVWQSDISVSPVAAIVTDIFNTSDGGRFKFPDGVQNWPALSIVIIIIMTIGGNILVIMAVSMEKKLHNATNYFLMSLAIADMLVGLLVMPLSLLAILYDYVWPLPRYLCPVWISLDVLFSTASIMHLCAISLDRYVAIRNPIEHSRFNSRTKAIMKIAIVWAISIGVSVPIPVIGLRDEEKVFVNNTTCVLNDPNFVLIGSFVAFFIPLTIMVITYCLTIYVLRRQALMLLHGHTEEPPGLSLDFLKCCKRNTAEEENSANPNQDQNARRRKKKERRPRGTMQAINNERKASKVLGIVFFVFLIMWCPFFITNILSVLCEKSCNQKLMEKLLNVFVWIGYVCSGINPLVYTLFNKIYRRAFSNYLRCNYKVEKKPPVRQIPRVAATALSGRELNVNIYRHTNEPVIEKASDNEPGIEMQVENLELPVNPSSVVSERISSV

[5] = Plasma protein binding in mouse at 1 ug/mL by equilibrium dialysis method; assay type: ADME, cell-free; settings: read-out: PPB (converted)
Cytochrome P450 2C9 = Cytochrome P450 2C9 (Homo sapiens, UniProt P11712); assay: Inhibition of human CYP2C9 using 7-methoxy-4-triflouromethylcoumarin-3-acetic acid as substrate incubated for 30 mins prior to substrate addition measured up to 10 mins by fluorimetry; assay type: ADME
Chain of Cytochrome P450 2C9 (P11712 whole entry): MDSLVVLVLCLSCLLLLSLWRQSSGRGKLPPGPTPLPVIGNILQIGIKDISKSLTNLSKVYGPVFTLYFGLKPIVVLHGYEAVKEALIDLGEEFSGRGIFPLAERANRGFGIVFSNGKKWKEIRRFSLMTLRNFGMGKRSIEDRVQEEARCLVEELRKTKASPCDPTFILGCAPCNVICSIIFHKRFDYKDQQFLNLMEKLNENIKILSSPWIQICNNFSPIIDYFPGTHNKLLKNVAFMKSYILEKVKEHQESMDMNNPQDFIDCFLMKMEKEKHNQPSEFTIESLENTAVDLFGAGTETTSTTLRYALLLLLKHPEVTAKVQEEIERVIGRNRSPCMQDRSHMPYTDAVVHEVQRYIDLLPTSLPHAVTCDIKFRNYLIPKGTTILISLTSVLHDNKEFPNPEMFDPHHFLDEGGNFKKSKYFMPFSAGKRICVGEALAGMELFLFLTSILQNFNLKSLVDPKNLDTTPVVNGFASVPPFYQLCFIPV

Cytochrome P450 2D6 = Cytochrome P450 2D6 (Homo sapiens, UniProt P10635); assay: Inhibition of human CYP2D6 using 4-methylaminomethyl-7-methoxycoumarin as substrate incubated for 30 mins prior to substrate addition measured up to 10 mins by fluorimetry; assay type: ADME
Chain of Cytochrome P450 2D6 (P10635 whole entry): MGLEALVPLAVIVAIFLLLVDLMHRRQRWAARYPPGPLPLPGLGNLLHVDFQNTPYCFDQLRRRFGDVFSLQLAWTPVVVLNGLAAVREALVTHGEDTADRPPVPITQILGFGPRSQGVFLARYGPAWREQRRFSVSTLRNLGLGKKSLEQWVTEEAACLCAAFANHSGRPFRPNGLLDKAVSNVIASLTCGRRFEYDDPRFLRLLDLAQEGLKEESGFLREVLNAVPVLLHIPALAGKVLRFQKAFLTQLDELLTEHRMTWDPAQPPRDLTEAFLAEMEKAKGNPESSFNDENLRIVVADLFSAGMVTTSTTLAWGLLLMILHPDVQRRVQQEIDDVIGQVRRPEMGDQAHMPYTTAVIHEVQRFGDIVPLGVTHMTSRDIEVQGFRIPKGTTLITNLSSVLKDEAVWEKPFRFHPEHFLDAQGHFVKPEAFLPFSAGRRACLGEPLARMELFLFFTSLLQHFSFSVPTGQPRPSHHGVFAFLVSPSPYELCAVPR

Cytochrome P450 3A4 = Cytochrome P450 3A4 (Homo sapiens, UniProt P08684); assay: Inhibition of human CYP3A4 using 7-benzyloxyquinoline as substrate incubated for 30 mins prior to substrate addition measured up to 10 mins by fluorimetry; assay type: ADME
Chain of Cytochrome P450 3A4 (P08684 whole entry): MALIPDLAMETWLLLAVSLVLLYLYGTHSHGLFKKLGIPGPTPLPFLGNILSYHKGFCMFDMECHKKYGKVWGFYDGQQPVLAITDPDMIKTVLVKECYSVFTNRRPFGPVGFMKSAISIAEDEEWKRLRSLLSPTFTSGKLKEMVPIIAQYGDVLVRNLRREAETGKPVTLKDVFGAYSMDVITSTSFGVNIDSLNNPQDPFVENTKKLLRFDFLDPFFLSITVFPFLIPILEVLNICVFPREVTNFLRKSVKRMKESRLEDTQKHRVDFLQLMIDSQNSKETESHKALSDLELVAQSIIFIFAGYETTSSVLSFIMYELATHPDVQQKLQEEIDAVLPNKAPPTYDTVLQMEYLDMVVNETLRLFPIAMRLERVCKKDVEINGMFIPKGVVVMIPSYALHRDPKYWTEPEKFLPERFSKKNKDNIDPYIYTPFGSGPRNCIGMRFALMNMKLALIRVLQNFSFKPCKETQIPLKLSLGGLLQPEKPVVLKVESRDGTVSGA

Cytochrome P450 2C19 = Cytochrome P450 2C19 (Homo sapiens, UniProt P33261); assay: Inhibition of human CYP2C19 using 3-butyryl-7-methoxycoumarin as substrate incubated for 30 mins prior to substrate addition measured up to 10 mins by fluorimetry; assay type: ADME
Chain of Cytochrome P450 2C19 (P33261 whole entry): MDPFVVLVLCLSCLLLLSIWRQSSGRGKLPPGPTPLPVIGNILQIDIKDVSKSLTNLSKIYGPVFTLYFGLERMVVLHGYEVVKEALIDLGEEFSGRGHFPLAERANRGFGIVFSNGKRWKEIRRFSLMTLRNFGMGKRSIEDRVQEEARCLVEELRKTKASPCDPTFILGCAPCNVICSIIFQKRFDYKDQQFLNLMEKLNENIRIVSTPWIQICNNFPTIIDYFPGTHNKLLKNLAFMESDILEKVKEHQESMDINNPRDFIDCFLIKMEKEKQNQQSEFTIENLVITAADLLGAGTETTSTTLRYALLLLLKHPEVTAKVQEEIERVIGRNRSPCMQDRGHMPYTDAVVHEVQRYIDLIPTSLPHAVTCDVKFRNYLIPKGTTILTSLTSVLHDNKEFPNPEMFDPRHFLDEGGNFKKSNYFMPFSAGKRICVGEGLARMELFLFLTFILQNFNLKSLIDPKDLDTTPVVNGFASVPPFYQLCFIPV

[6] = target: Voltage-gated inwardly rectifying potassium channel KCNH2 (Homo sapiens, UniProt Q12809); assay: Displacement of Cy3b-tagged dofetilide from human ERG expressed in CHO cells by fluorescence polarization assay
Chain of Voltage-gated inwardly rectifying potassium channel KCNH2 (Q12809 whole entry): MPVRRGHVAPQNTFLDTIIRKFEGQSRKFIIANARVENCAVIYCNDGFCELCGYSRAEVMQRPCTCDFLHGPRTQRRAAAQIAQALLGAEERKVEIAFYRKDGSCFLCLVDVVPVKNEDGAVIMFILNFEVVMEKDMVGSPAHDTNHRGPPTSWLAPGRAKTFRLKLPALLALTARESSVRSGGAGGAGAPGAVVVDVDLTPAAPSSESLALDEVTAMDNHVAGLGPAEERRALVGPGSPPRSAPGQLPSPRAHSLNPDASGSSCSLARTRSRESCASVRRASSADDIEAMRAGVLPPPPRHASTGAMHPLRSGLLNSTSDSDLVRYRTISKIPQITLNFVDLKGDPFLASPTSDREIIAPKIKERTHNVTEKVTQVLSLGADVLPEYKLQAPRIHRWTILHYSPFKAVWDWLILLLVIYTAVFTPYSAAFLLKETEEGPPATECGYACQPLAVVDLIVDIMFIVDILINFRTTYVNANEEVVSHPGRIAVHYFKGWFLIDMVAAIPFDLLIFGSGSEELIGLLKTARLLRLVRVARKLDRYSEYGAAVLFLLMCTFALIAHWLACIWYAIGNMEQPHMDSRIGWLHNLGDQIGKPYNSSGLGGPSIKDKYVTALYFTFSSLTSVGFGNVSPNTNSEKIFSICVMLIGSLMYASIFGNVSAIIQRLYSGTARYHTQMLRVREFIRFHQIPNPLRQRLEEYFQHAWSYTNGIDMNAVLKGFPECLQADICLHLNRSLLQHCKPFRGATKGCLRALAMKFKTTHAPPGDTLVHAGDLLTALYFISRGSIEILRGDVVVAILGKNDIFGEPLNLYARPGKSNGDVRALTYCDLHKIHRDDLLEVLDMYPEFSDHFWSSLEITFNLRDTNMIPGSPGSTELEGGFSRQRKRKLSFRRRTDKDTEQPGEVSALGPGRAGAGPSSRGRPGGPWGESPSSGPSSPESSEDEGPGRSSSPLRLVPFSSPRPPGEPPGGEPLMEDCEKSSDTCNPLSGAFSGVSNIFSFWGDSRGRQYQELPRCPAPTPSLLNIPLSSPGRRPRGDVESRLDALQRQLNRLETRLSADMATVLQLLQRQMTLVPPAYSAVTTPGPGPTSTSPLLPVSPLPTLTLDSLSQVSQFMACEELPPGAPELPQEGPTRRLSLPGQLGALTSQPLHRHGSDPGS

[7] = Chromatographic hydrophobicity index of the compound at pH 2; assay type: physicochemical
[8] = Chromatographic hydrophobicity index of the compound at pH 7.4; assay type: physicochemical
[9] = Chromatographic hydrophobicity index of the compound at pH 10.5; assay type: physicochemical
[10] = Equilibrium solubility of the compound in phosphate buffer saline after 24 hrs by LC-MS analysis at pH 7.4; assay type: physicochemical
[11] = Equilibrium solubility of the compound in fasted state simulated intestinal fluid after 24 hrs by LC-MS analysis at pH 6.8; assay type: physicochemical
[12] = Equilibrium solubility of the compound in fed state simulated intestinal fluid after 24 hrs by LC-MS analysis at pH 5; assay type: physicochemical
Plasmodium falciparum [13] = assay: Antiplasmodial activity against Plasmodium falciparum 3D7A assessed as inhibition of [3H]hypoxanthine incorporation after 96 hrs by beta scintillation counting; assay type: functional, organism-based; settings: 3D7 A
Plasmodium falciparum [14] = assay: Antiplasmodial activity against Plasmodium falciparum assessed as pyknotic phenotype at 10-fold IC50 after 24 hrs by Giemsa-staining method; assay type: functional, organism-based
Plasmodium falciparum [15] = assay: Antiplasmodial activity against Plasmodium falciparum 3D7A assessed as inhibition of [3H]hypoxanthine incorporation after 72 hrs by beta scintillation counting; assay type: functional, organism-based; settings: 3D7 A
[16] = Equilibrium solubility of the compound in simulated gastric fluid after 24 hrs by LC-MS analysis at pH1.2; assay type: physicochemical; settings: pH 1.2
Plasmodium falciparum [17] = assay: Selectivity ratio of IC50 for Plasmodium falciparum Dd2 to IC50 for Plasmodium falciparum HB3; assay type: functional
Plasmodium falciparum [18] = assay: Antiplasmodial activity against Plasmodium falciparum HB3 assessed as inhibition of [3H]hypoxanthine incorporation incubated for 24 hrs prior to [3H]hypoxanthine addition measured after 24 hrs by beta scintillation counting; assay type: functional, organism-based
[19] = Cytotoxicity against human HepG2 cells after 48 hrs by resazurin reduction assay; assay type: cell-based; settings: read-out: TC50
[20] = Cytotoxicity against mouse L1210 cells after 48 hrs by resazurin reduction assay; assay type: cell-based; settings: read-out: TC50
[21] = Cytotoxicity against mouse Neuro2a cells after 48 hrs by resazurin reduction assay; assay type: cell-based, N2a; settings: read-out: TC50
[22] = Cytotoxicity against rat H9c2(2-1) cells after 48 hrs by resazurin reduction assay; assay type: cell-based; settings: read-out: TC50
[23] = Cytotoxicity against MDCK cells after 48 hrs by resazurin reduction assay; assay type: cell-based, Canis lupus familiaris; settings: dog, read-out: TC50
Liver = assay: Intrinsic clearance in mouse liver microsomes at 0.5 uM by HPLC analysis; assay type: ADME, Microsome
Liver microsomes = assay: Intrinsic clearance in human liver microsomes at 0.5 uM by HPLC analysis; assay type: ADME, Microsome
Albumin = Albumin (Homo sapiens, UniProt P02768); assay: Binding affinity to human serum albumin by HPLC analysis; assay type: ADME; settings: isolated protein
Chain of Albumin (P02768 whole entry): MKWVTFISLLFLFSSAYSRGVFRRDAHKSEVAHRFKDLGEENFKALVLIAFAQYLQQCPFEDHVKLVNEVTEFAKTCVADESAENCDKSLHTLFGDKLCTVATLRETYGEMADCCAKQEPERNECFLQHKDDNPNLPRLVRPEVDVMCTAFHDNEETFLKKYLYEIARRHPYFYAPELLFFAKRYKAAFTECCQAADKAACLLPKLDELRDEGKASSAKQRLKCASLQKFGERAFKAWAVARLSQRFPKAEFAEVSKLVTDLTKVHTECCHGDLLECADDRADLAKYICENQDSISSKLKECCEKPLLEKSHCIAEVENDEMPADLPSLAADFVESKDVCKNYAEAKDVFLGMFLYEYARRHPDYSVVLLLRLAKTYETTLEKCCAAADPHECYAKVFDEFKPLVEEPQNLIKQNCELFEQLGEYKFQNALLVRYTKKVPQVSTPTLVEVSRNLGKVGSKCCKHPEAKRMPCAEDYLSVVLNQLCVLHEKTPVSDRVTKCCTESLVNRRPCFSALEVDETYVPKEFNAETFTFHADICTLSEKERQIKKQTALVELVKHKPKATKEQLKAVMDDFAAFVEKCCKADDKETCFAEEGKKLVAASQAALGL

Work on `COc1cc2c(cc1C(F)(F)F)N(C(=O)Nc1cccc(OC(F)(F)F)c1)CC2` yielded an IC50 (Plasmodium falciparum [1]) of over 5000 nM.

In the case of `C[C@@H]1CC[C@H]2[C@@H](C)C(=O)O[C@@H]3O[C@@]4(C)CC[C@@H]1[C@]32OO4` [ARTEMISININ], the Activity (Plasmodium falciparum [2]) is reported as “Active” and the IC50 (Plasmodium falciparum [1]) is reported as 20 nM.

With `COc1cc2c(cc1C(F)(F)F)N(C(=O)Nc1cc(OC(F)(F)F)cc(-c3ccc(C)nc3)c1)CC2` the IC50 (Plasmodium falciparum [3]) was 800 nM and the IC50 (Plasmodium falciparum [1]) was 290 nM.

`COc1cc2c(cc1C(F)(F)F)N(C(=O)Nc1cc(-c3cccnc3)cc(C(F)(F)F)c1)CC2` gave an IC50 (Plasmodium falciparum [3]) of 810 nM, an IC50 [4] of 10 nM and an IC50 (Plasmodium falciparum [1]) of 140 nM.

With `COc1cc2c(cc1C(F)(F)F)N(C(=O)Nc1cc(OC(F)(F)F)cc(-c3cncnc3)c1)CC2` the IC50 (Plasmodium falciparum [3]) was over 1000 nM and the IC50 (Plasmodium falciparum [1]) was 30 nM.

`O=C(Nc1cc(OC(F)(F)F)cc(-c2cccnc2)c1)N1CCc2ccc(CO)cc21` showed an IC50 [4] of 180 nM and an IC50 (Plasmodium falciparum [1]) of 400 nM.

With `COc1cc2c(cc1C(F)(F)F)N(C(=O)Nc1cc(F)cc(-c3cccnc3)c1)CC2` the IC50 (Plasmodium falciparum [3]) was 2120 nM, the IC50 [4] was 10 nM and the IC50 (Plasmodium falciparum [1]) was 430 nM.

With `COc1cc2c(cc1C(F)(F)F)N(C(=O)Nc1cc(OC(F)(F)F)cc(-c3cccnc3)c1)CC2` the fraction unbound at 1 ug/mL [5] was 0.002, the IC50 (Cytochrome P450 2C9) was 2000 nM and the IC50 (Cytochrome P450 2D6) was 13000 nM. The IC50 (Cytochrome P450 3A4) was over 50000 nM, the IC50 (Cytochrome P450 2C19) was over 50000 nM and the Activity [6] was over 16 µM. For the same compound, the CHI [7] was 3.09, the CHI [8] was 4.22 and the CHI [9] was 4.18. For the same compound, the solubility thermodynamic at 24 h [10] was under 0.1 µg/mL, the solubility thermodynamic at 24 h [11] was under 0.1 µg/mL and the solubility thermodynamic at 24 h [12] was 16.7 µg/mL (≈ 33.6 µM). For the same compound, the IC50 (Plasmodium falciparum [13]) was 25 nM, the Activity (Plasmodium falciparum [14]) was “Active” and the IC50 (Plasmodium falciparum [15]) was 40 nM. The solubility thermodynamic at 24 h [16] was 1550 µg/mL (≈ 3120 µM), the “Ratio IC50” value (Plasmodium falciparum [17]) was over 10 and the IC50 (Plasmodium falciparum [18]) was 90 nM. For the same compound, the IC50 (Plasmodium falciparum [3]) was over 1000 nM, the IC50 [4] was 50 nM and the CC50 at 48 h [19] was 7000 nM. It also gave a CC50 at 48 h [20] of 3200 nM, a CC50 at 48 h [21] of over 12500 nM and a CC50 at 48 h [22] of over 12500 nM. It also gave a CC50 at 48 h [23] of over 12500 nM, a CLH (Liver) of under 0.3 mL/min/g and a CLH (Liver microsomes) of under 0.3 mL/min/g. It also gave an Activity (Albumin) of 97.8%.

For `COc1cc2c(cc1C(F)(F)F)N(C(=O)Nc1cc(C)cc(OC(F)(F)F)c1)CC2`, the IC50 (Plasmodium falciparum [1]) was over 5000 nM.

`COc1cc2c(cc1C(F)(F)F)N(C(=O)Nc1cc(OC(F)(F)F)cc(-c3cc[nH]c3)c1)CC2` gave an IC50 (Plasmodium falciparum [1]) of 1070 nM.

With `COc1cc2c(cc1C(F)(F)F)N(C(=O)Nc1cc(Br)cc(-c3cccnc3)c1)CC2` the IC50 (Plasmodium falciparum [3]) was 1100 nM, the IC50 [4] was 10 nM and the IC50 (Plasmodium falciparum [1]) was 160 nM.

Compound `COc1cc2c(cc1C(F)(F)F)N(C(=O)Nc1cccc(-c3cccnc3)c1)CC2` has an IC50 [4] of 7 nM and an IC50 (Plasmodium falciparum [1]) of 4450 nM.

For `COc1cc2c(cc1C(F)(F)F)N(C(=O)Nc1cc(Br)cc(OC(F)(F)F)c1)CC2`, the IC50 [4] was 390 nM and the IC50 (Plasmodium falciparum [1]) was 4840 nM.

In the case of `O=C(Nc1cc(OC(F)(F)F)cc(-c2cccnc2)c1)N1CCc2cccc(F)c21`, the IC50 (Plasmodium falciparum [3]) is reported as 1070 nM, the IC50 [4] is reported as over 40000 nM and the IC50 (Plasmodium falciparum [1]) is reported as 410 nM.
